Test results: patent US11123334B2 (priority 2018, dated 2021)

What was measured:
rhesus monkeys [1] = test: Heroin-induced respiratory depression, head plethysmograph, seated monkeys; conditions: for duration in reversing and protecting against heroin-induced respiratory depression: FIG. 2; for antagonism of respiratory-depressant effects of heroin: day after (24 hours after) antagonist administration
μ opioid receptors = biological target: T1, μ opioid receptors (Mus musculus, UniProt P42866); conditions: cited from earlier work
T1 construct: host or cells: live mouse (endogenous receptor)
T1 sequence (P42866 whole entry): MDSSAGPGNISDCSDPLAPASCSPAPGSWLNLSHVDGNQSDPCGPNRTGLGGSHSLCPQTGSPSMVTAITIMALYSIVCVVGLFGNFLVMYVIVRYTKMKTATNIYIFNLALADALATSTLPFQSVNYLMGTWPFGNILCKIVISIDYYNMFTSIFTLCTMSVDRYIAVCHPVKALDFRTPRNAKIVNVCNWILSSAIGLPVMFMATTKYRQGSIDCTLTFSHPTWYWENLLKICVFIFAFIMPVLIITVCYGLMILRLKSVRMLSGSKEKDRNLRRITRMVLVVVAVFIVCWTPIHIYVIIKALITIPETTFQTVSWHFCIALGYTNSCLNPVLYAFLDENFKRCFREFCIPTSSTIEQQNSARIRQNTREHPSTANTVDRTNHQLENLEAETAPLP

rhesus monkeys [2] = test: Intravenous drug self-administration (heroin or cocaine), fixed-ratio 30 schedule; type: in vivo; conditions: for duration of action on responding for heroin (in words): after a single administration; for responding for cocaine: naltrexone 0.032 mg/kg, MCAM 0.32 mg/kg, cocaine 0.032 mg/kg/infusion; for responding for heroin: session following s.c. pretreatment, heroin 0.0032 mg/kg/infusion

Row | SMILES | reversal of opioid agonist side effects (respiratory depression) (rhesus monkeys [1]; 0.32 mg/kg subcutaneously, monkeys received heroin 0.1-1.0 mg/kg) | respiratory-depressant effects of heroin after antagonist (rhesus monkeys [1]; 4 days after administration of antagonist) | duration in reversing and protecting against heroin-induced respiratory depression (rhesus monkeys [1]) | antagonism of respiratory-depressant effects of heroin (rhesus monkeys [1]) | antagonism of morphine (μ opioid receptors; 48 hours later) | effect on antinociception of 1000 mg/kg morphine (μ opioid receptors; one hour after administration) | duration of action on responding for heroin (in words) (rhesus monkeys [2]) | time responding for heroin remained decreased (rhesus monkeys [2]; after a single injection of antagonist) | responding for cocaine (rhesus monkeys [2]) | responding for heroin (rhesus monkeys [2]) | decrease of respiration by heroin (rhesus monkeys [1]; monkeys breathing air, largest heroin dose tested, s.c.) | duration of action on responding for heroin (in words) (rhesus monkeys [2]; listed as Naltrexone)
1 | Cc1ccc(/C=C/C(=O)N[C@@]23CCC(=O)[C@@H]4Oc5c(O)ccc6c5[C@@]42CCN(CC2CC2)[C@@H]3C6)cc1 [MCAM, methocinnamox] | reversed | not affected | long duration | continued to antagonize | marked antagonism of morphine | prevented any antinociceptive effect | more than one week | up to 8 days | did not affect responding for cocaine | decreased responding for heroin | – | –
2 | CC(=O)Oc1ccc2c3c1O[C@H]1[C@@H](OC(C)=O)C=C[C@H]4[C@@H](C2)N(C)CC[C@@]341 [heroin, reference compound] | – | – | – | – | – | – | – | – | – | – | ≤ 70 % of control | –
3 | C=CCN1CC[C@]23c4c5ccc(O)c4O[C@H]2C(=O)CC[C@@]3(O)[C@H]1C5 [naloxone, reference compound] | – | – | short duration | – | – | – | – | – | – | – | – | –
4 | O=C1CC[C@@]2(O)[C@H]3Cc4ccc(O)c5c4[C@@]2(CCN3CC2CC2)[C@H]1O5 [naltrexone, reference compound] | – | – | – | no longer effective | – | – | less than one day | – | did not affect responding for cocaine | decreased responding for heroin | – | returning to baseline levels the next day
